The values that follow are results of earlier work, collected in patent US20110046396A1, “POLYMORPHIC FORMS OF FLUVASTATIN SODIUM AND PROCESS FOR PREPARING THE SAME” (JUBILANT ORGANOSYS LIMITED, priority 2005, published 2011).

The conditions of the series: compared with Form A or the amorphous form of Fluvastatin sodium; described in U.S. Pat. No. 6,124,340.

As for `CC(C)n1c(/C=C/[C@H](O)C[C@H](O)CC(=O)[O-])c(-c2ccc(F)cc2)c2ccccc21.[Na+]` (racemic) [Form B, (±)-7-(3-(4-fluorophenyl)-1-(1-methylethyl)-1H-indol-2-yl)-3,5-dihydroxy-6-heptenoic acid monosodium salt], the hygroscopicity result is “less hygroscopic than Form A or the amorphous form”.
